Source: US12595253B2, “Benzamides of pyrazolylamino-pyrimidinyl derivatives, and compositions and methods thereof” (LYNK PHARMACEUTICALS CO. LTD., priority 2019, dated 2026)

Tests used:
JAK1 = biological target: T1, JAK1 (Homo sapiens, UniProt P23458); test: JAK1 microfluidic kinase assay (Caliper EZ Reader II, FAM labeled peptide substrate); assay type: biochemical
T1 construct: purchased Carna Biosciences
Summary of the method: (§1)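 Compounds, serially diluted 3-fold from 5 μM, were preincubated 10 min with enzyme at ambient temperature before reaction in HEPES/Brij35/MgCl2/DTT buffer (1% DMSO final), tuned to 10% peptide conversion. After EDTA stop, FAM-peptide phosphorylation was measured by Caliper EZ Reader II; IC50 fitted from percent-inhibition curves.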

JAK2 = biological target: T2, JAK2 (Homo sapiens, UniProt O60674); test: JAK2 microfluidic kinase assay (Caliper EZ Reader II, FAM labeled peptide substrate); assay type: biochemical
T2 construct: purchased Carna Biosciences
T2 sequence (O60674 whole entry): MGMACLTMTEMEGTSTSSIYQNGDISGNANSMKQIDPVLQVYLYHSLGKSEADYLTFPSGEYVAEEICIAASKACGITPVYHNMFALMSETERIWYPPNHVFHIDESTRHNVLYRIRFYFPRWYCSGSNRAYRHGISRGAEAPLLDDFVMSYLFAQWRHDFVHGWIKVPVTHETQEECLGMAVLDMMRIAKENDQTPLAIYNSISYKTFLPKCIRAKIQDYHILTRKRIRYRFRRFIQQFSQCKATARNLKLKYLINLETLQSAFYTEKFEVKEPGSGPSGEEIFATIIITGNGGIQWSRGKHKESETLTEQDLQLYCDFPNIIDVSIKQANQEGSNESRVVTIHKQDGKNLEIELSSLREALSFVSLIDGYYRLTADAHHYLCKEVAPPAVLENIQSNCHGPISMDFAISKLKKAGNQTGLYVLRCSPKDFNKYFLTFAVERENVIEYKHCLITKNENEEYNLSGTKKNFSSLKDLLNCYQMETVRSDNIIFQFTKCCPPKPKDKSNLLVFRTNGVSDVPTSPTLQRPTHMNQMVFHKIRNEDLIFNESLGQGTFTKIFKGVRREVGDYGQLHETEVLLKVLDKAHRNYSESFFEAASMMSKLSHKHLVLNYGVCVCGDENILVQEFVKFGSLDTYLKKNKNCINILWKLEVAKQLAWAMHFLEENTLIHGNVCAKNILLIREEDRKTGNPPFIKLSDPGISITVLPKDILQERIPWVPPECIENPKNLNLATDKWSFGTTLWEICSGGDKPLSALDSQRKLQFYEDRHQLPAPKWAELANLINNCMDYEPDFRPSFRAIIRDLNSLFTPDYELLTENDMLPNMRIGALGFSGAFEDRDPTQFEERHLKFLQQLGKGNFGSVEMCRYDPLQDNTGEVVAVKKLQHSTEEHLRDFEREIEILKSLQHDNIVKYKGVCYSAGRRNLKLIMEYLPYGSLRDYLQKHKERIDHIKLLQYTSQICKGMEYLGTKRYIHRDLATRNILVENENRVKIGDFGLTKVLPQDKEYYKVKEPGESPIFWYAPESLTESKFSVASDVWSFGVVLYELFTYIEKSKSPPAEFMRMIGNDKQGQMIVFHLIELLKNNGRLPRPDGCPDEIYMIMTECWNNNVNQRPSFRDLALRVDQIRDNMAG
Summary of the method: as §1

CYP2D6 = biological target: T3, CYP2D6 (Homo sapiens, UniProt P10635); test: CYPs inhibition in pooled human liver microsomes, probe substrate Dextromethorphan; assay type: in vitro ADME
T3 construct: 0.2 mg/mL human liver microsomes was pre-incubated in 180 μL reaction mixture; from tissue; host or cells: pooled human liver microsomes
T3 sequence (P10635 whole entry): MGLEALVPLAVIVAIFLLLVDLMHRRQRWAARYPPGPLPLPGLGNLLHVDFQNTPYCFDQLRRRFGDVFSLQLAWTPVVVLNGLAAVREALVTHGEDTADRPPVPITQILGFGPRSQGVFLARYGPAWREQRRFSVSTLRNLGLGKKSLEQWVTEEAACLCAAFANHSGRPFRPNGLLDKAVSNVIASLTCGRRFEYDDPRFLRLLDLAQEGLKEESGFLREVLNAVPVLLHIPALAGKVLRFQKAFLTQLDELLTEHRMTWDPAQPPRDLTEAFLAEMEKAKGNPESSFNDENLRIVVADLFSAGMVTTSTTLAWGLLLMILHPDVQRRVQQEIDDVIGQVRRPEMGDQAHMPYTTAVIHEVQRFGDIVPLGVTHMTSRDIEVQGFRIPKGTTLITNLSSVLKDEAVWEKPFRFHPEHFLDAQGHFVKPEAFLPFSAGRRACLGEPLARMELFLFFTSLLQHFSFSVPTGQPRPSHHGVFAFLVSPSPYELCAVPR
Description: (§2) The inhibitory potential of test articles in pooled human liver microsomes was evaluated by the method using a cocktail of CYP substrates. […] For the negative control well, the test articles was replaced with 20 μL reaction buffer. After 10 min of pre-incubation at 37° C., 20 μL 10 mM NADPH cofactor was added to the pre-reaction mixtures. After another 10 min incubation, the reaction was stopped by adding 400 μL of ice cold acetonitrile solution containing tolbutamide and labetalol served as internal standards. The incubation mixtures were centrifuged at 4000×g for 20 min, and then the supernatants were analyzed by LC-MS/MS after dilution. SigmaPlot was applied to plot % control activity versus the test compound concentrations, and for non-linear regression analysis of the data. IC50 values of test articles were determined using 3-parameter logistic equation.

CYP2C19 = biological target: T4, CYP2C19 (Homo sapiens, UniProt P33261); test: CYPs inhibition in pooled human liver microsomes, probe substrate S-mephenytoin; assay type: in vitro ADME
T4 construct: 0.2 mg/mL human liver microsomes was pre-incubated in 180 μL reaction mixture; from tissue; host or cells: pooled human liver microsomes
T4 sequence (P33261 whole entry): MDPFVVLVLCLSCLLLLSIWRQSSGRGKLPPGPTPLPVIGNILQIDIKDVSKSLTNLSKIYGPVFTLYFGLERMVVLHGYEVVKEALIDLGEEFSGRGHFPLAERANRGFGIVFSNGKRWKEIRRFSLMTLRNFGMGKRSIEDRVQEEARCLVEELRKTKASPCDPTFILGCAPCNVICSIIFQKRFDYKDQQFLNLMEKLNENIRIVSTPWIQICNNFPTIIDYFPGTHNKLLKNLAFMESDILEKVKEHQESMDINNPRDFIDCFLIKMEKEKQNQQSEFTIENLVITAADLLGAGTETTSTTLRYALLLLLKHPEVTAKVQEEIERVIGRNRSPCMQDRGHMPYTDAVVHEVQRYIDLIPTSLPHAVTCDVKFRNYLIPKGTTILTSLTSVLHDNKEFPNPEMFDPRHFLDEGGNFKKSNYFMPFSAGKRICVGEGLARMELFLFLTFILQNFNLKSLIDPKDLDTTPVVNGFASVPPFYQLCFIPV
Description: as §2

CYP1A2 = biological target: T5, CYP1A2 (Homo sapiens, UniProt P05177); test: CYPs inhibition in pooled human liver microsomes, probe substrate Phenacetin; assay type: in vitro ADME
T5 construct: 0.2 mg/mL human liver microsomes was pre-incubated in 180 μL reaction mixture; from tissue; host or cells: pooled human liver microsomes
T5 sequence (P05177 1-516): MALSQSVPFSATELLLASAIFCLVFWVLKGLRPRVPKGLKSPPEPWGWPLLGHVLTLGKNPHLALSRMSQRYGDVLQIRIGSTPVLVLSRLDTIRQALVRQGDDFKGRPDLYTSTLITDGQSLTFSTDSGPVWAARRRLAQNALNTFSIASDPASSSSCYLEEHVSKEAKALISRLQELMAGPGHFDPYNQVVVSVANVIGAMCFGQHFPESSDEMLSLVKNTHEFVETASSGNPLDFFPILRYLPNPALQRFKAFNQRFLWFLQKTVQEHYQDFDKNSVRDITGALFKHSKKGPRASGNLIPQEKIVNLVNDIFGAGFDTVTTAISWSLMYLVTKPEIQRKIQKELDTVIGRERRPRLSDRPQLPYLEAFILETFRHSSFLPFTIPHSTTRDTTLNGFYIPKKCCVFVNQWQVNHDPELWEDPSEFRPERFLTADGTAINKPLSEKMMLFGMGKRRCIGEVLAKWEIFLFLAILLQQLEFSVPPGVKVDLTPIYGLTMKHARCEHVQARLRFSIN
Description: as §2

JAK2V617F = biological target: T6, JAK2V617F (Homo sapiens, UniProt O60674, V617F); test: JAK2V617F microfluidic kinase assay (Caliper EZ Reader II, FAM labeled peptide substrate); assay type: biochemical; conditions: JAK2V617F 2.5 nM, 1 mM ATP
T6 construct: purchased Carna Biosciences
T6 sequence (O60674 whole entry V617F): as the sequence (O60674 whole entry) above, with V617F counted along it
Summary of the method: as §1

CYP2C9 = biological target: T7, CYP2C9 (Homo sapiens, UniProt P11712); test: CYPs inhibition in pooled human liver microsomes, probe substrate Diclofenac; assay type: in vitro ADME
T7 construct: 0.2 mg/mL human liver microsomes was pre-incubated in 180 μL reaction mixture; from tissue; host or cells: pooled human liver microsomes
T7 sequence (P11712 whole entry): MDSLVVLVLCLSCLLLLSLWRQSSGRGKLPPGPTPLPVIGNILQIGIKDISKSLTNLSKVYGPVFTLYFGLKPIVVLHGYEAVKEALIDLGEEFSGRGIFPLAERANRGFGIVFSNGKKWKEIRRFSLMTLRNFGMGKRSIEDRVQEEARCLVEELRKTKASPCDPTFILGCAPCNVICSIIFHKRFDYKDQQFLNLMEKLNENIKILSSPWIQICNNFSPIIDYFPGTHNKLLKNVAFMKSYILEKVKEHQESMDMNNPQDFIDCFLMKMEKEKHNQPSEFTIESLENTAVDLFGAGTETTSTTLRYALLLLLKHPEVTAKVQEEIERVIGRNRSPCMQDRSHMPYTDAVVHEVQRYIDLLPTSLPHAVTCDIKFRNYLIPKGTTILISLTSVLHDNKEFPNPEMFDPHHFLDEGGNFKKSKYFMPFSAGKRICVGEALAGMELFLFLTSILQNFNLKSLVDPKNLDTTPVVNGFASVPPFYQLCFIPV
Description: as §2

CYP3A4 = biological target: T8, CYP3A4 (Homo sapiens, UniProt P08684); test: CYPs inhibition in pooled human liver microsomes, probe substrate Midazolam; assay type: in vitro ADME
T8 construct: 0.2 mg/mL human liver microsomes was pre-incubated in 180 μL reaction mixture; from tissue; host or cells: pooled human liver microsomes
T8 sequence (P08684 whole entry): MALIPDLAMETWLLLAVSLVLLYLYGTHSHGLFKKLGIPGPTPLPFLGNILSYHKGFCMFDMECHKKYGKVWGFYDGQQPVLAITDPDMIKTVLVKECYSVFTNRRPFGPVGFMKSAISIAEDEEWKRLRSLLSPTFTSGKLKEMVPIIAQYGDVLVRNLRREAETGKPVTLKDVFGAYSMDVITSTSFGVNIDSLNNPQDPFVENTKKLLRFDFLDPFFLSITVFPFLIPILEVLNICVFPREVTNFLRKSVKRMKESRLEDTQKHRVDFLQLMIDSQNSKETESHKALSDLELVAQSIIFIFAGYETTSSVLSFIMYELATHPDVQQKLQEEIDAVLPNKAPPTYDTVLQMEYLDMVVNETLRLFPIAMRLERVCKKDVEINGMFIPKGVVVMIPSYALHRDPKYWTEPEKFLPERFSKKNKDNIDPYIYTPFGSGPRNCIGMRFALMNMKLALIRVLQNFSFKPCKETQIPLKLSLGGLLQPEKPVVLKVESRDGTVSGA
Description: as §2

TYK2 = biological target: T9, TYK2 (Homo sapiens, UniProt P29597); test: TYK2 microfluidic kinase assay (Caliper EZ Reader II, FAM labeled peptide substrate); assay type: biochemical
T9 construct: purchased Carna Biosciences
T9 sequence (P29597 whole entry): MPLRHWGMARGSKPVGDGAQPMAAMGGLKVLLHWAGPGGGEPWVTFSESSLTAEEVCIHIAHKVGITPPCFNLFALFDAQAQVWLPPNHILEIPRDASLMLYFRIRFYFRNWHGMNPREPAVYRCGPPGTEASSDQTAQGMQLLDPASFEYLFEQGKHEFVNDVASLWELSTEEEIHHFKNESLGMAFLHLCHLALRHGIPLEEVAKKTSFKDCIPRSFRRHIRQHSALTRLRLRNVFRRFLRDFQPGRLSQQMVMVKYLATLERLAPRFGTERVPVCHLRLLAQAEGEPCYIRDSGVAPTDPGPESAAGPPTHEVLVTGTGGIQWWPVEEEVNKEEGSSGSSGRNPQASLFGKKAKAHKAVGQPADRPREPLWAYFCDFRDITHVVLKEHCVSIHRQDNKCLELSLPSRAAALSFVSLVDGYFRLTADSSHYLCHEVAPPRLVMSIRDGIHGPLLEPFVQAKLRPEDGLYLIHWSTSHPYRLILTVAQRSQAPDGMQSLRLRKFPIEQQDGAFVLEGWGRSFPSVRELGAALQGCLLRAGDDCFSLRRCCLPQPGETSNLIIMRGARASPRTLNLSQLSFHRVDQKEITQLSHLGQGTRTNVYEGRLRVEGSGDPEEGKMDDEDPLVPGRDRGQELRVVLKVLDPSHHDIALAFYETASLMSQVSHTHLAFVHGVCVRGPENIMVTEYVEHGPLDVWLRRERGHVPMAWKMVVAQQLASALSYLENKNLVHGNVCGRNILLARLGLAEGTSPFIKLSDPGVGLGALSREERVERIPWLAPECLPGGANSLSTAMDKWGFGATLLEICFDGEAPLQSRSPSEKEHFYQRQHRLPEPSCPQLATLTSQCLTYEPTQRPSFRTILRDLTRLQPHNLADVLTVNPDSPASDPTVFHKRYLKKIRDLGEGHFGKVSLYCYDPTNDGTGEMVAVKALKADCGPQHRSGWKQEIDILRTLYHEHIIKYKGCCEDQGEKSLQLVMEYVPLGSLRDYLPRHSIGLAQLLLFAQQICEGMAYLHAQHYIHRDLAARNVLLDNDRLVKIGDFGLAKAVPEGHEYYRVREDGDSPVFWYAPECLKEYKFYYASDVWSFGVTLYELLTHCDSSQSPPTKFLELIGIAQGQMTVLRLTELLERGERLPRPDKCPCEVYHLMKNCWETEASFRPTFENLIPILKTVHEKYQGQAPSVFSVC
Summary of the method: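 3-fold series, top 5 μM, 1% DMSO; 10 min preincubation with enzyme, RT. Buffer 50 mM HEPES/10 mM MgCl2/2 mM DTT/0.01% Brij35. Run times JAK1 120 min, JAK2 20, JAK2V617F 30, TYK2 10. Stopped with 50 mM EDTA; IC50 from % inhibition vs no-enzyme and DMSO controls.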

[1] = Liver microsomes study, Phase I stability (HLM); assay type: in vitro ADME, human; conditions: pH 7.4; human liver microsomes 0.5 mg/mL, 1 μM test article; read-out: HLM Clint
Summary of the method: (§3)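 Phase I turnover was followed by LC/MS/MS of parent compound remaining at 0, 10, 30 and 90 min in NADPH-fortified rat or human microsomes, with cold acetonitrile quench. Half-life and intrinsic clearance were derived from the log-linear depletion slope and the inverse protein concentration.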

[2] = Liver microsomes study, Phase I stability (RLM); assay type: in vitro ADME, rat; conditions: pH 7.4; rat liver microsomes 0.5 mg/mL, 1 μM test article; read-out: RLM Clint
Summary of the method: as §3

[3] = IC50 JAK1 (5 nM) (1 m MATP), JAK1 5 nM, 1 mM ATP
[4] = IC50 JAK2 ([…]) (1 mM ATP), 1 mM ATP
[5] = IC50 TYK2 ([…]) (1 mM ATP), TYK2 […], 1 mM ATP
[6] = IC50 JAK1 (10 nM) (Km ATP), JAK1 10 nM, Km ATP
[7] = IC50 JAK2 ([…]) (Km ATP), Km ATP

Row | SMILES | IC50 (JAK1; [3]) [µM] | IC50 (JAK2; [4]) [µM] | IC50 (CYP2D6) [µM] | IC50 (CYP2C19) [µM] | IC50 (CYP1A2) [µM] | IC50 (JAK2V617F) [µM] | IC50 (CYP2C9) [µM] | IC50 (CYP3A4) [µM] | IC50 (TYK2; [5]) [µM] | microsomal CLint at 1 μM [1] [µL/min/mg] | microsomal CLint at 1 μM [2] [µL/min/mg] | IC50 (JAK1; [6]) [µM] | IC50 (JAK2; [7]) [µM] | IC50 (TYK2; IC50 TYK2 (10 nM) (Km ATP), TYK2 10 nM, Km ATP) [µM]
1 | Cc1cnc(Nc2cnn(C3CCC(O)CC3)c2)nc1-c1ccc(C(=O)NCC#N)cc1 (stereo not shown) [Example 132, N-(Cyanomethyl)-4-(2-((1-(4-hydroxycyclohexyl)-1H-pyrazol-4-yl)amino)-5-methylpyrimidin-4-yl)benzamide] | 0.00644 | < 0.00025 | 1.76 | 10.4 | 24.5 | 0.00289 | 5.93 | 31.5 | 0.0204 |  |  |  |  | 
2 | CC[C@@H](C#N)NC(=O)c1ccc(-c2nc(Nc3cnn(C4CCN(C)CC4)c3)ncc2Cl)cc1 [Example 88, (S)-4-(5-chloro-2-((1-(1-methylpiperidin-4-yl)-1H-pyrazol-4-yl)amino)pyrimidin-4-yl)-N-(1-cyanopropyl)benzamide] | 0.00082 | 0.00061 | 41.9 | 24 | > 50 | 0.00242 | 45.3 | 32.1 | 0.00668 | 22.8 | 221 |  |  | 
3 | C[C@@H](C#N)NC(=O)c1ccc(-c2nc(Nc3cnn(C4CCN(C)CC4)c3)ncc2F)cc1 [Example 50, (S)—N-(1-cyanoethyl)-4-(5-fluoro-2-((1-(1-methylpiperidin-4-yl)-1H-pyrazol-4-yl)amino)pyrimidin-4-yl)benzamide] | 0.0912 | 0.11 | > 50 | > 50 | > 50 | 0.186 | > 50 | > 50 | 0.218 | 8.92 |  |  |  | 
4 | CC[C@@H](C#N)NC(=O)c1ccc(-c2nc(Nc3cnn(CCO)c3)ncc2Cl)cc1 [Example 167, (S)-4-(5-Chloro-2-((1-(2-hydroxyethyl)-1H-pyrazol-4-yl)amino)pyrimidin-4-yl)-N-(1-cyanopropyl)benzamide] | 0.0012 | 0.0044 | 37.8 | > 50 | > 50 |  | 38.1 | > 50 | 0.00264 | 7.06 | 14.4 |  |  | 
5 | CC[C@@H](C#N)NC(=O)c1ccc(-c2nc(Nc3cnn(CCO)c3)ncc2C)cc1 [Example 172, (S)—N-(1-cyanopropyl)-4-(2-((1-(2-hydroxyethyl)-1H-pyrazol-4-yl)amino)-5-methylpyrimidin-4-yl)benzamide] | 0.00193 | 0.0246 | > 50 | > 50 | > 50 |  | > 50 | > 50 | 0.00174 | 5.05 | 14.8 |  |  | 
6 | Cc1cnc(Nc2cnn(C3CCN(CC(F)F)CC3)c2)nc1-c1ccc(C(=O)NCC#N)cc1 [Example 19, N-(Cyanomethyl)-4-(2-((1-(1-(2,2-difluoroethyl)piperidin-4-yl)-1H-pyrazol-4-yl)amino)-5-methylpyrimidin-4-yl)benzamide] |  |  | > 50 | > 50 | > 50 |  | > 50 | > 50 |  | 33.7 | 49.2 | 0.00192 | 0.00065 | 
7 | Cc1cnc(Nc2cnn(C3CCN(CC#N)CC3)c2)nc1-c1ccc(C(=O)NCC#N)cc1 [Example 1, N-(Cyanomethyl)-4-(2-((1-(1-(cyanomethyl)piperidin-4-yl)-1H-pyrazol-4-yl)amino)-5-methylpyrimidin-4-yl)benzamide] |  | 0.00134 | > 50 | > 50 | > 50 | 0.0378 | > 50 | > 50 |  | 14.9 | 15 | 0.00179 | 0.00042 | 0.00084
8 | CC(=O)N1CCC(n2cc(Nc3ncc(C)c(-c4ccc(C(=O)NCC#N)cc4)n3)cn2)CC1 [Example 20, 4-(2-((1-(1-Acetylpiperidin-4-yl)-1H-pyrazol-4-yl)amino)-5-methylpyrimidin-4-yl)-N-(cyanomethyl)benzamide] |  | 0.0003 | > 50 | > 50 | > 50 | 0.0137 | > 50 | > 50 |  | < 9.6 | < 9.6 |  | 0.00025 | 
9 | COC[C@@H](C#N)NC(=O)c1ccc(-c2nc(Nc3cnn(C4CCN(C)CC4)c3)ncc2C)cc1 [Example 213, (R)—N-(1-Cyano-2-methoxyethyl)-4-(5-methyl-2-((1-(1-methylpiperidin-4-yl)-1H-pyrazol-4-yl)amino)pyrimidin-4-yl)benzamide] | 0.00461 | 0.00173 | 19.4 | > 50 | > 50 |  | > 50 | > 50 | 0.0174 |  |  |  |  | 
10 | Cc1cnc(Nc2cnn(C3CCN(C)CC3)c2)nc1-c1ccc(C(=O)N[C@@H](C)C#N)cc1 [Example 48, (S)—N-(1-cyanoethyl)-4-(5-methyl-2-((1-(1-methylpiperidin-4-yl)-1H-pyrazol-4-yl)amino)pyrimidin-4-yl)benzamide] | 0.00383 | 0.00102 | > 50 | > 50 | > 50 | 0.0317 | > 50 | > 50 | 0.0106 | 4.64 | 34.5 |  |  | 
11 | CC[C@@H](C#N)NC(=O)c1ccc(-c2nc(Nc3cnn(C(C)C(F)(F)F)c3)ncc2C)cc1 (stereo partly drawn) [Example 195, N—((S)-1-cyanopropyl)-4-(5-methyl-2-((1-(1,1,1-trifluoropropan-2-yl)-1H-pyrazol-4-yl)amino)pyrimidin-4-yl)benzamide] | 0.00361 | 0.0264 | 30.7 | > 50 | > 50 | 0.0611 | > 50 | > 50 | 0.00542 |  |  |  |  | 
